Each block holds one compound with its values, some of them ahead of it.
How the values were obtained:
[1] = test system: ATXN3 pre-mRNA (transcripts containing exon 4); test: ATXN3 quantitative splicing assay (qPCR, E4E5 transcripts containing exon 4); type: cell-based; conditions: Homo sapiens; SK-N-MC cells, 24 h treatment, qPCR E4E5 primers/probe
Procedure: Human neuroblastoma SK-N-MC cells were plated in 384-well plates at 20,000 cells/well. Twenty-four hours after plating, cells were treated with compounds for 24 h at appropriate concentrations ranging from 30 μM to 0.6 nM (0.3% DMSO). Treated cells were lysed in 15 μL of lysis buffer, and cDNA was synthesized using the Fast Advanced Cells-to-Ct kit. Two μL of each cDNA was used in qPCR reactions to confirm the exon 4 skipped transcripts of ATXN3. A second set of primers/probe E4E5 was used to detect the transcripts containing exon 4. The third set of primers/probe E8E9 was used to detect total gene level of ATXN3. The qPCR reactions were prepared in 384-well plates in 10 μL volume, using TaqMan™ Fast Advanced Master Mix with primers and probes shown in the table below. Reactions were run in a Quant Studio 6 qPCR instrument with default settings.
The primers and probes are listed below in Table 5.

total ATXN3 protein = test: ATXN3 total protein assay (MSD); type: cell-based, human; conditions: SK-N-MC cells, 48 h incubation
Procedure: Human neuroblastoma SK-N-MC cells were seeded at 10,000 cells/well in 384 well plates one day prior to compound treatment. The concentrations of compounds were tested at appropriate doses ranging from 30 μM to 0.6 nM. After incubation for 48 hours, the cells were lysed with 25 μL of lysis buffer containing protease inhibitors, and total ATXN3 protein levels were assessed by Mesoscale Discovery (MSD) assay developed with one pair of anti-ATXN3 antibodies. The capture and detect antibodies were raised in mouse and rabbit respectively. Anti-rabbit MSD-ST antibody was used for secondary antibody.
ATXN3 recombinant protein was used for standards. The readouts were captured with 35 μL of MSD read buffer and multi-array 384-well high binding plates.

SMILES: C#Cc1c(C[C@H](C)N)sc2c(NCc3ccco3)snc12 [Compound 11, 7-[(S)-2-aminopropyl]-8-ethynyl-4-(furfurylamino)-3,6-dithia-2-azabicyclo[3.3.0]octa-1,4,7-triene]
IC50 [1]: 0.01 to 100 nM | IC50 (total ATXN3 protein): 0.01 to 100 nM

SMILES: C[C@H](F)[C@H](N)Cc1sc2c(NCc3cccs3)snc2c1-c1ncco1 [Compound 41, 7-[(2R,3S)-2-amino-3-fluorobutyl]-8-(1,3-oxazol-2-yl)-4-thenylamino-3,6-dithia-2-azabicyclo[3.3.0]octa-1,4,7-triene]
IC50 [1]: 501 to 5000 nM | IC50 (total ATXN3 protein): 501 to 5000 nM

SMILES: C[C@H](N)Cc1sc2c(NCc3cccs3)snc2c1-n1cccn1 [Compound 3, 7-[(S)-2-aminopropyl]-8-(1-pyrazolyl)-4-thenylamino-3,6-dithia-2-azabicyclo[3.3.0]octa-1,4,7-triene]
IC50 [1]: 10000 to 40000 nM | IC50 (total ATXN3 protein): 10000 to 40000 nM

SMILES: C[C@H](N)Cc1sc2c(NCc3cccs3)snc2c1-c1ccccn1 [Compound 7, 5-[(2S)-2-aminopropyl]-6-(pyridin-2-yl)-N-(thiophen-2-ylmethyl)thieno[3,2-c][1,2]thiazol-3-amine]
IC50 [1]: 10000 to 40000 nM | IC50 (total ATXN3 protein): 10000 to 40000 nM

SMILES: C#Cc1c(C[C@@H](N)CF)sc2c(NCc3cccs3)snc12 [Compound 17, 7-[(R)-2-amino-3-fluoropropyl]-8-ethynyl-4-thenylamino-3,6-dithia-2-azabicyclo[3.3.0]octa-1,4,7-triene]
IC50 [1]: 101 to 500 nM | IC50 (total ATXN3 protein): 501 to 5000 nM

SMILES: C#Cc1c(C[C@H](C)N)sc2c(NCc3cccs3)snc12 [Compound 4, 5-[(2S)-2-aminopropyl]-6-ethynyl-N-(thiophen-2-ylmethyl)thieno[3,2-c][1,2]thiazol-3-amine]
IC50 [1]: 101 to 500 nM | IC50 (total ATXN3 protein): 101 to 500 nM

SMILES: C[C@H](N)Cc1sc2c(NCc3cccs3)snc2c1-c1ccncc1 [Compound 5, 7-[(S)-2-aminopropyl]-8-(4-pyridyl)-4-thenylamino-3,6-dithia-2-azabicyclo[3.3.0]octa-1,4,7-triene]
IC50 [1]: 10000 to 40000 nM | IC50 (total ATXN3 protein): 10000 to 40000 nM

SMILES: C[C@H](N)Cc1sc2c(NCc3cccs3)snc2c1-n1ccnc1 [Compound 8, 5-[(2S)-2-aminopropyl]-6-(imidazol-1-yl)-N-(thiophen-2-ylmethyl)thieno[3,2-c][1,2]thiazol-3-amine]
IC50 [1]: 10000 to 40000 nM | IC50 (total ATXN3 protein): 10000 to 40000 nM

SMILES: C#Cc1c(C[C@@H](N)CC2CC2)sc2c(NCc3cccs3)snc12 [Compound 33, 7-[(S)-2-amino-3-cyclopropylpropyl]-8-ethynyl-4-thenylamino-3,6-dithia-2-azabicyclo[3.3.0]octa-1,4,7-triene]
IC50 [1]: 501 to 5000 nM | IC50 (total ATXN3 protein): 501 to 5000 nM

SMILES: C[C@H](N)Cc1sc2c(NCc3cccs3)snc2c1-c1cccnc1 [Compound 6, 7-[(S)-2-aminopropyl]-8-(3-pyridyl)-4-thenylamino-3,6-dithia-2-azabicyclo[3.3.0]octa-1,4,7-triene]
IC50 [1]: 10000 to 40000 nM | IC50 (total ATXN3 protein): 10000 to 40000 nM

SMILES: C[C@H](N)Cc1sc2c(NCc3ccco3)snc2c1-c1ccncc1 [Compound 10, 7-[(S)-2-aminopropyl]-4-(furfurylamino)-8-(4-pyridyl)-3,6-dithia-2-azabicyclo[3.3.0]octa-1,4,7-triene]
IC50 [1]: 10000 to 40000 nM | IC50 (total ATXN3 protein): 10000 to 40000 nM

SMILES: C#Cc1c(C(F)(F)[C@H](C)N)sc2c(NCc3cccs3)snc12 [Compound 35, 7-[(S)-2-amino-1,1-difluoropropyl]-8-ethynyl-4-thenylamino-3,6-dithia-2-azabicyclo[3.3.0]octa-1,4,7-triene]
IC50 [1]: 501 to 5000 nM | IC50 (total ATXN3 protein): 501 to 5000 nM

SMILES: C[C@H](N)Cc1sc2c(NCc3ccco3)snc2c1-c1cccnc1 [Compound 12, 7-[(S)-2-aminopropyl]-4-(furfurylamino)-8-(3-pyridyl)-3,6-dithia-2-azabicyclo[3.3.0]octa-1,4,7-triene]
IC50 [1]: 10000 to 40000 nM | IC50 (total ATXN3 protein): 10000 to 40000 nM

SMILES: C[C@H](N)Cc1sc2c(NCc3cccs3)snc2c1-c1ncco1 [Compound 40, 7-[(S)-2-aminopropyl]-8-(1,3-oxazol-2-yl)-4-thenylamino-3,6-dithia-2-azabicyclo[3.3.0]octa-1,4,7-triene]
IC50 [1]: 501 to 5000 nM | IC50 (total ATXN3 protein): 501 to 5000 nM

More lines, now with the values ahead:

IC50 [1]: 101 to 500 nM | IC50 (total ATXN3 protein): 101 to 500 nM
SMILES: C#Cc1c(C[C@@H](N)[C@H](C)F)sc2c(NCc3cccs3)snc12 [Compound 19, 5-[(2R,3S)-2-amino-3-fluorobutyl]-6-ethynyl-N-(thiophen-2-ylmethyl)thieno[3,2-c][1,2]thiazol-3-amine]

IC50 [1]: 501 to 5000 nM | IC50 (total ATXN3 protein): 501 to 5000 nM
SMILES: C#Cc1c(C[C@@H](N)COC)sc2c(NCc3cccs3)snc12 [Compound 15, 7-[(R)-2-amino-3-methoxypropyl]-8-ethynyl-4-thenylamino-3,6-dithia-2-azabicyclo[3.3.0]octa-1,4,7-triene]

IC50 [1]: 501 to 5000 nM | IC50 (total ATXN3 protein): 501 to 5000 nM
SMILES: C#Cc1c(C[C@@H](N)COC2CC2)sc2c(NCc3cccs3)snc12 [Compound 34, 7-[(R)-2-amino-3-cyclopropoxypropyl]-8-ethynyl-4-thenylamino-3,6-dithia-2-azabicyclo[3.3.0]octa-1,4,7-triene]

IC50 [1]: 10000 to 40000 nM | IC50 (total ATXN3 protein): 10000 to 40000 nM
SMILES: C#Cc1c(C[C@@H](N)COC)sc2c(NCc3ccccc3)snc12 [Compound 30, 7-[(R)-2-amino-3-methoxypropyl]-4-benzylamino-8-ethynyl-3,6-dithia-2-azabicyclo[3.3.0]octa-1,4,7-triene]

IC50 [1]: 501 to 5000 nM | IC50 (total ATXN3 protein): 501 to 5000 nM
SMILES: C#Cc1c(C[C@@H](N)C(F)F)sc2c(NCc3ccco3)snc12 [Compound 37, 7-[(R)-2-amino-3,3-difluoropropyl]-8-ethynyl-4-(furfurylamino)-3,6-dithia-2-azabicyclo[3.3.0]octa-1,4,7-triene]

IC50 [1]: 101 to 500 nM | IC50 (total ATXN3 protein): 501 to 5000 nM
SMILES: C#Cc1c(C[C@@H](N)[C@@H](C)F)sc2c(NCc3ccco3)snc12 [Compound 24, 7-[(2R,3R)-2-amino-3-fluorobutyl]-8-ethynyl-4-(furfurylamino)-3,6-dithia-2-azabicyclo[3.3.0]octa-1,4,7-triene]

IC50 [1]: 101 to 500 nM | IC50 (total ATXN3 protein): 501 to 5000 nM
SMILES: C#Cc1c(C[C@@H](N)CF)sc2c(NCc3ccco3)snc12 [Compound 23, 7-[(R)-2-amino-3-fluoropropyl]-8-ethynyl-4-(furfurylamino)-3,6-dithia-2-azabicyclo[3.3.0]octa-1,4,7-triene]

IC50 [1]: 501 to 5000 nM | IC50 (total ATXN3 protein): 501 to 5000 nM
SMILES: C#Cc1c(C[C@@H](N)COC)sc2c(NCc3ccco3)snc12 [Compound 14, 7-[(R)-2-amino-3-methoxypropyl]-8-ethynyl-4-(furfurylamino)-3,6-dithia-2-azabicyclo[3.3.0]octa-1,4,7-triene]

IC50 [1]: 101 to 500 nM | IC50 (total ATXN3 protein): 0.01 to 100 nM
SMILES: C#Cc1c(C[C@@H](N)[C@H](C)F)sc2c(NCc3nccs3)snc12 [Compound 22, 7-[(2R,3S)-2-amino-3-fluorobutyl]-8-ethynyl-4-{[(1,3-thiazol-2-yl)methyl]amino}-3,6-dithia-2-azabicyclo[3.3.0]octa-1,4,7-triene]

IC50 [1]: 0.01 to 100 nM | IC50 (total ATXN3 protein): 0.01 to 100 nM
SMILES: C#Cc1c(C[C@@H](N)CO)sc2c(NCc3ccco3)snc12 [Compound 13, (R)-2-amino-3-{8-ethynyl-4-(furfurylamino)-3,6-dithia-2-azabicyclo[3.3.0]octa-1,4,7-trien-7-yl}-1-propanol]

IC50 [1]: 101 to 500 nM | IC50 (total ATXN3 protein): 101 to 500 nM
SMILES: C#Cc1c(C[C@@H](N)[C@H](C)F)sc2c(NCc3ccco3)snc12 [Compound 25, 7-[(2R,3S)-2-amino-3-fluorobutyl]-8-ethynyl-4-(furfurylamino)-3,6-dithia-2-azabicyclo[3.3.0]octa-1,4,7-triene]

IC50 [1]: 0.01 to 100 nM | IC50 (total ATXN3 protein): 0.01 to 100 nM
SMILES: C#Cc1c(C[C@@H](N)CO)sc2c(NCc3cccs3)snc12 [Compound 16, (R)-2-amino-3-(8-ethynyl-4-thenylamino-3,6-dithia-2-azabicyclo[3.3.0]octa-1,4,7-trien-7-yl)-1-propanol]

IC50 [1]: 101 to 500 nM | IC50 (total ATXN3 protein): 101 to 500 nM
SMILES: C#Cc1c(C[C@@H](N)CC2CC2)sc2c(NCc3ccco3)snc12 [Compound 32, 7-[(S)-2-amino-3-cyclopropylpropyl]-8-ethynyl-4-(furfurylamino)-3,6-dithia-2-azabicyclo[3.3.0]octa-1,4,7-triene]
